From PubChem BioAssay (NCI)
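Results reflect a 48-hour exposure of cells in 96-well plates to compound at five concentrations. GI50 is the concentration that inhibits growth by half. TGI: concentration producing complete growth inhibition.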

Legend:
Test in all cases: growth of human tumour cells (NCI), 48 h
[1] = tested on: SK-OV-3 ovarian
[2] = tested on: HCT-15 colon
[3] = tested on: SNB-19 CNS
[4] = tested on: CAKI-1 renal
[5] = tested on: HCT-116 colon
[6] = tested on: NCI-H23 lung
[7] = tested on: OVCAR-8 ovarian
[8] = tested on: SK-MEL-2 melanoma
[9] = tested on: UO-31 renal
[10] = tested on: M14 melanoma
[11] = tested on: UACC-62 melanoma
[12] = tested on: SNB-75 CNS
[13] = tested on: OVCAR-3 ovarian
[14] = tested on: A549 NSCLC
[15] = tested on: NCI-H226 lung
[16] = tested on: SK-MEL-28 melanoma
[17] = tested on: SK-MEL-5 melanoma
[18] = tested on: HOP-62 NSCLC
[19] = tested on: PC-3 prostate
[20] = tested on: HCC-2998 colon
[21] = tested on: MOLT-4 leukemia
[22] = tested on: CCRF-CEM leukemia
[23] = tested on: HOP-92 NSCLC
[24] = tested on: DU-145 prostate
[25] = tested on: MALME-3M melanoma
[26] = tested on: SF-295 CNS
[27] = tested on: SR leukemia
[28] = tested on: KM12 colon
[29] = tested on: SN12C renal
[30] = tested on: K-562 leukemia
[31] = tested on: NCI-H522 lung
[32] = tested on: SF-268 CNS
[33] = tested on: 786-0 renal
[34] = tested on: IGROV1 ovarian
[35] = tested on: RXF 393 renal
[36] = tested on: MDA-MB-231 breast
[37] = tested on: SF-539 CNS
[38] = tested on: COLO 205 colon
[39] = tested on: NCI-H460 lung
[40] = tested on: BT-549 breast
[41] = tested on: SW-620 colon
[42] = tested on: OVCAR-5 ovarian
[43] = tested on: RPMI-8226 leukemia
[44] = tested on: HS 578T breast
[45] = tested on: MCF7 breast
[46] = tested on: ACHN renal
[47] = tested on: EKVX NSCLC
[48] = tested on: HT29 colon
[49] = tested on: LOX IMVI melanoma
[50] = tested on: TK-10 renal
[51] = tested on: HL-60(TB) leukemia
[52] = tested on: OVCAR-4 ovarian
[53] = tested on: U251 CNS
[54] = tested on: NCI/ADR-RES ovarian

In the case of CC(=O)O[C@H](C[C@H](C(C)C)N(C)C(=O)[C@@H](NC(=O)[C@H]1CCCCN1C)C(C)(C)C)c1nc(C(=O)N[C@@H](Cc2ccccc2)C[C@H](C)C(=O)O)cs1, the GI50 [1] is reported as under 2.5 nM, the TGI [1] is reported as over 25000 nM and the GI50 [2] is reported as under 2.5 nM. It also gave a TGI [2] of over 25000 nM, a GI50 [3] of under 2.5 nM and a TGI [3] of over 25000 nM. For the same molecule, the GI50 [4] was under 2.5 nM, the TGI [4] was over 25000 nM and the GI50 [5] was under 2.5 nM. It also gave a TGI [5] of over 25000 nM, a GI50 [6] of under 2.5 nM and a TGI [6] of over 25000 nM. For the same molecule, the GI50 [7] was under 2.5 nM, the TGI [7] was over 25000 nM and the GI50 [8] was under 2.5 nM. For the same molecule, the TGI [8] was over 25000 nM, the GI50 [9] was 19.2 nM and the TGI [9] was over 25000 nM. For the same molecule, the GI50 [10] was under 2.5 nM, the GI50 [11] was under 2.5 nM and the TGI [11] was over 25000 nM. It also gave a GI50 [12] of under 2.5 nM, a TGI [12] of over 25000 nM and a GI50 [13] of under 2.5 nM. The TGI [13] was 4.48 nM, the GI50 [14] was under 2.5 nM and the TGI [14] was over 25000 nM. It also gave a GI50 [15] of 34.8 nM, a GI50 [16] of 1050 nM and a TGI [16] of over 25000 nM. For the same molecule, the GI50 [17] was under 2.5 nM, the TGI [17] was 5.7 nM and the GI50 [18] was under 2.5 nM. It also gave a TGI [18] of over 25000 nM, a GI50 [19] of under 2.5 nM and a TGI [19] of over 25000 nM. It also gave a GI50 [20] of under 2.5 nM, a TGI [20] of over 8500 nM and a GI50 [21] of under 2.5 nM. For the same molecule, the TGI [21] was over 25000 nM, the GI50 [22] was under 2.5 nM and the TGI [22] was over 25000 nM. For the same molecule, the GI50 [23] was under 2.5 nM, the TGI [23] was 297 nM and the GI50 [24] was under 2.5 nM. For the same molecule, the GI50 [25] was under 2.5 nM, the TGI [25] was over 25000 nM and the GI50 [26] was under 2.5 nM. The TGI [26] was over 8940 nM, the GI50 [27] was under 2.5 nM and the TGI [27] was over 25000 nM. The GI50 [28] was under 2.5 nM, the GI50 [29] was under 2.5 nM and the TGI [29] was over 25000 nM. For the same molecule, the GI50 [30] was under 2.5 nM, the TGI [30] was over 25000 nM and the GI50 [31] was under 2.5 nM. For the same molecule, the TGI [31] was 8.47 nM, the GI50 [32] was 4.32 nM and the TGI [32] was over 25000 nM. The GI50 [33] was under 2.5 nM, the TGI [33] was over 25000 nM and the GI50 [34] was 2.94 nM. The TGI [34] was over 25000 nM, the GI50 [35] was under 2.5 nM and the TGI [35] was over 25000 nM. For the same molecule, the GI50 [36] was under 2.5 nM, the GI50 [37] was under 2.5 nM and the TGI [37] was 4.6 nM. It also gave a GI50 [38] of under 2.5 nM, a TGI [38] of 5.3 nM and a GI50 [39] of under 2.5 nM. For the same molecule, the TGI [39] was over 25000 nM, the GI50 [40] was 3.04 nM and the TGI [40] was 64.5 nM. It also gave a GI50 [41] of under 2.5 nM, a TGI [41] of over 25000 nM and a GI50 [42] of under 2.5 nM. It also gave a TGI [42] of over 25000 nM, a GI50 [43] of under 2.5 nM and a TGI [43] of over 25000 nM. For the same molecule, the GI50 [44] was under 2.5 nM, the TGI [44] was over 23600 nM and the GI50 [45] was under 2.5 nM. It also gave a TGI [45] of over 25000 nM, a GI50 [46] of under 2.5 nM and a TGI [46] of over 25000 nM. It also gave a GI50 [47] of 4.62 nM, a TGI [47] of over 25000 nM and a GI50 [48] of under 2.5 nM. It also gave a TGI [48] of over 25000 nM, a GI50 [49] of under 2.5 nM and a TGI [49] of over 25000 nM. It also gave a GI50 [50] of 9.62 nM, a TGI [50] of over 25000 nM and a GI50 [51] of under 2.5 nM. It also gave a TGI [51] of under 2.5 nM, a GI50 [52] of 5.25 nM and a TGI [52] of over 25000 nM. It also gave a GI50 [53] of under 2.5 nM, a TGI [53] of over 25000 nM and a GI50 [54] of 5.24 nM. The TGI [54] was over 25000 nM.
